Each structure is given as a SMILES string. In brackets after ≈: the same amount, converted by molar mass.

The test system of experiment [1] is Lactobacillus acidophilus. The experiment in a line: Antimicrobial activity, well diffusion method. It counts as cell-based. The note with it: 5mg/ml of sample around well (6 mm), mean ± Standard deviation. The source says:
(§1) Mouth microbial representatives including unicellular fungi; Candida albicans (RCMB 05382), Candida glabrata (RCMBA 05386), Candida parapsilosis (RCMBA 06002), Candida tropicalis (RCMB 05384), Gram-positive bacteria; Lactobacillus acidophilus (RCMBA 4267), Streptococcus gordonii (RCMBA 2004), Streptococcus mutans (RCMBA 4131), and Gram-negative bacteria; Pseudomonas aeruginosa (RCMBA 1002) were obtained from the Regional Center for Mycology and Biotechnology (RCMB), Al-Azhar University, Cairo, Egypt, as test organisms. Antimicrobial activity was determined by the well diffusion method. Petri plates contained 20 ml of Nutrient (for bacteria) or Malt extract (for fungi). Agar medium were seeded with 1-3 day cultures of microbial inoculums (1-2 X 10^7 CFU/ml). […] The assessment of antimicrobial activity was based on measurement of the diameter of the inhibition zone formed around the well.
(In general: Agar diffusion results depend on both activity and mobility in agar.)

For experiment [2], the system named is Pseudomonas aeruginosa. The experiment is described as follows: Antimicrobial activity, well diffusion method. The note with it: 5mg/ml of sample around well (6 mm), mean ± Standard deviation. It counts as cell-based.
Description: as §1

The test system of experiment [3] is Streptococcus gordonii. The experiment is described as follows: Antimicrobial activity, well diffusion method. Format: cell-based. Particulars: 5mg/ml of sample around well (6 mm), mean ± Standard deviation.
Description: as §1

The test system of experiment [4] is Streptococcus mutans. The experiment in a line: Antimicrobial activity, well diffusion method. It counts as cell-based. Particulars: 5mg/ml of sample around well (6 mm), mean ± Standard deviation.
Description: as §1

The test system of experiment [5] is Lactobacillus acidophilus. The experiment is described as follows: MIC determination, micro-dilution method. It counts as cell-based. The note with it: read-out: Minimum Inhibitory Concentration. An excerpt: (§2) Mouth microbial representatives including unicellular fungi; Candida albicans (RCMB 05382), Candida glabrata (RCMBA 05386), Candida parapsilosis (RCMBA 06002), Candida tropicalis (RCMB 05384), Gram-positive bacteria; Lactobacillus acidophilus (RCMBA 4267), Streptococcus gordonii (RCMBA 2004), Streptococcus mutans (RCMBA 4131), and Gram-negative bacteria; Pseudomonas aeruginosa (RCMBA 1002) were obtained from the Regional Center for Mycology and Biotechnology (RCMB), Al-Azhar University, Cairo, Egypt, as test organisms.
(§3) The minimum inhibitory concentration (MIC) was determined by micro-dilution method using serially diluted (2 folds) extract and isolated compound. MIC of the extract was determined by dilution of extract and isolated compound of concentrations of 0.0-1000 µg/ml. Equal volume of each extract and nutrient broth were mixed in a test tube. Specifically 0.1 ml of standardized inoculum (1-2 X 10^7 CFU/ml) was added in each tube. The tubes were incubated at 37°C for 24-48 h. Two control tubes containing the growth medium, saline and the inoculum were maintained for each test batch. The lowest concentration (highest dilution) of the extract that produced no visible microbial growth (no turbidity) when compared with the control tubes were regarded as MIC.
On the technique in general: In broth dilution the organism is exposed to a series of concentrations in liquid medium.

Experiment [6] relates to Pseudomonas aeruginosa. The experiment in a line: MIC determination, micro-dilution method. Format: cell-based. Particulars: read-out: Minimum Inhibitory Concentration.
Description: as §2, §3

Experiment [7] relates to Streptococcus gordonii. The experiment is described as follows: MIC determination, micro-dilution method. It counts as cell-based. The note with it: read-out: Minimum Inhibitory Concentration.
Description: as §2, §3

For experiment [8], the system named is Streptococcus mutans. The experiment in a line: MIC determination, micro-dilution method. Format: cell-based. Particulars: read-out: Minimum Inhibitory Concentration.
Description: as §2, §3

The test system of experiment [9] is Lactobacillus acidophilus. The experiment is described as follows: In-vitro activity in combination with Coe-Comfort tissue conditioner, CFU count. Format: cell-based. The note with it: for No. colony-forming units (CFU): mixed with Coe-Comfort.
The test system of experiment [10] is Streptococcus gordonii. The experiment is described as follows: In-vitro activity in combination with Coe-Comfort tissue conditioner. Format: cell-based.
A further experiment relates to S. mutans. The description is as above. It counts as cell-based, Streptococcus mutans.

For the compound `[H]/N=C(\N/C(=N/[H])NCCCCCCNC(=N)NC(=N)Nc1ccc(Cl)cc1)Nc1ccc(Cl)cc1` [Chlorhexidine, reference compound], the “Diameter of inhibition zone” value in experiment [1] is reported as 26.2± 0.42 mm; with Pseudomonas aeruginosa [2] it was 20.1 ± 0.19 mm; in the experiment on Streptococcus gordonii [3], 22.1± 0.51 mm; with Streptococcus mutans [4] it was 23.5 ± 0.34 mm. In addition, the MIC in experiment [5] amounted to 0.06 µg/mL (≈ 0.119 µM); in the experiment with Pseudomonas aeruginosa [6], 3.9 µg/mL (≈ 7.72 µM); in the experiment on Streptococcus gordonii [7], 0.98 µg/mL (≈ 1.94 µM); with Streptococcus mutans [8] it was 0.49 µg/mL (≈ 0.969 µM). Further, the “concentration giving total growth inhibition” value in [9] (in combination with Coe-comfort tissue conditioner) is 15.63 µg/mL; in the experiment with Streptococcus gordonii [10] it was 3.9 µg/mL; in the experiment with S. mutans, 15.63 µg/mL. In addition, the “No. colony-forming units (CFU)” value in experiment [9] (concentration 000.24 µg/ml) was 6.4 x 10^5; in [9] (concentration 000.49 µg/ml), 2.3 x 10^5; in experiment [9] (concentration 000.98 µg/ml), 3.1 x 10^4; in [9] (concentration 001.95 µg/ml) it was 5.4 x 10^3; in experiment [9] (concentration 003.90 µg/ml), 1.9 x 10^3; in experiment [9] (concentration 007.81 µg/ml), 7.9 x 10^2. In addition, the “No. colony-forming units (CFU)” value in [9] (concentration 015.63 µg/ml), in [9] (concentration 031.25 µg/ml) and in experiment [9] (concentration 062.50 µg/ml) was 00.00 each time.

The values above are taken from patent EP2923697B1, “Extract and novel isolated compound from Aspergillus terreus for treatment of mouth microbial infections” (King Saud University, priority 2014, dated 2015).
